According to patent US20070128217A1 (priority 2003, published 2007):

Legend:
[1] = test system: rabbit serum obtained by immunizing a rabbit with the SARS-CoV strain Frankfurt 1; format: binding; set-up: Binding of a rabbit serum to linear peptides / Binding of a rabbit serum to looped peptides / Rabbit serum linear peptides / Rabbit serum looped peptides / Binding of a rabbit serum to linear peptides of protein N of SARS-CoV Urbani (Rabbit serum linear peptides) / Binding of a rabbit serum to looped/cyclic peptides of protein N of SARS-CoV Urbani (Rabbit serum looped peptides): unit not given here
[2] = test system: control sera (pooled serum of ten healthy LUMC hospital workers; commercial negative donor pooled serum from the Dutch bloodbank); format: binding, human; set-up: Binding of Control serum LUMC to linear peptides / Binding of Control serum Blood-bank to linear peptides / Binding of Control serum LUMC to looped peptides / Binding of Control Serum Blood-Bank to Looped peptides / Binding of Control serum LUMC to linear peptides of the protein M of SARS-CoV Urbani / Binding of Control serum Blood-bank to linear peptides of the protein M of SARS-CoV Urbani / Binding of Control serum LUMC to looped peptides of the protein M of SARS-CoV Urbani / Binding of Control Serum Blood-Bank to Looped peptides of the protein M of SARS-CoV Urbani: unit not given here
[3] = test system: antibodies in sera from SARS patients (sera 1a, 1b, 2, 6, 37, 62, London, SARS-yellow, SARS-green); format: binding, human; set-up: Binding of serum 6 to linear peptides of protein X1 of SARS-CoV Urbani / Binding of serum 37 to linear peptides of protein X1 of SARS-CoV Urbani / Binding of serum 6 to looped/cyclic peptide (PEPSCAN-ELISA) / Binding of serum 37 to looped/cyclic peptide (PEPSCAN-ELISA) / Binding of serum 37 to looped/cyclic peptides of protein X1 of SARS-CoV Urbani / Binding of serum 6 to linear peptides of protein X2 / Binding of serum 37 to linear peptides of protein X2 / Binding of serum 37 to looped/cyclic peptides of protein X2 of SARS-CoV Urbani / Binding of serum 6 to linear peptides of protein M of SARS-CoV Urbani / Binding of serum 37 to linear peptides of protein M of SARS-CoV Urbani / Binding of serum 6 to looped/cyclic peptides of protein M of SARS-CoV Urbani / Binding of serum 37 to looped/cyclic peptides of protein M of SARS-CoV Urbani / Binding of serum 6 to linear peptides of protein X3 of SARS-CoV Urbani / Binding of serum 37 to linear peptides of protein X3 of SARS-CoV Urbani / Binding of serum 37 to looped/cyclic peptides of protein X3 of SARS-CoV Urbani / Binding of serum 6 to linear peptides of protein X4 of SARS-CoV Urbani / Binding of serum 37 to linear peptides of protein X4 of SARS-CoV Urbani / Binding of serum 37 to looped/cyclic peptides of protein X4 of SARS-CoV Urbani / Binding of serum 6 to linear peptides of protein X5 of SARS-CoV Urbani / Binding of serum 37 to linear peptides of protein X5 of SARS-CoV Urbani / Binding of serum 37 to looped/cyclic peptides of protein X5 of SARS-CoV Urbani / Binding of serum 6 to linear peptides of protein N of SARS-CoV Urbani / Binding of serum 37 to linear peptides of protein N of SARS-CoV Urbani / Binding of serum 6 to linear peptide (PEPSCAN-ELISA) / Binding of serum 1a to looped/cyclic peptides of protein N of SARS-CoV Urbani / Binding of serum 1b to looped/cyclic peptides of protein N of SARS-CoV Urbani / Binding of serum 2 to looped/cyclic peptides of protein N of SARS-CoV Urbani / Binding of serum 6 to looped/cyclic peptides of protein N of SARS-CoV Urbani / Binding of serum 37 to looped/cyclic peptides of protein N of SARS-CoV Urbani / Binding of serum 62 to looped/cyclic peptides of protein N of SARS-CoV Urbani / Binding of serum London to looped/cyclic peptides of protein N of SARS-CoV Urbani / Binding of serum SARS-green to looped/cyclic peptides of protein N of SARS-CoV Urbani: unit not given here

IMLLQFAYSNRNRFL
0.6: Binding of Control serum LUMC to linear peptides of the protein M of SARS-CoV Urbani [2] | Binding of Control serum LUMC to looped peptides of the protein M of SARS-CoV Urbani [2] | Binding of serum 1a to looped/cyclic peptides of protein M of SARS-CoV Urbani [3] | Binding of serum 2 to looped/cyclic peptides of protein M of SARS-CoV Urbani [3] | Binding of serum 37 to looped/cyclic peptides of protein M of SARS-CoV Urbani [3] | Binding of serum London to looped/cyclic peptides of protein M of SARS-CoV Urbani [3] | Binding of serum SARS-yellow to looped/cyclic peptides of protein M of SARS-CoV Urbani [3]
1.0: Binding of serum 6 to looped/cyclic peptides of protein M of SARS-CoV Urbani [3]
0.4: Binding of serum 1b to looped/cyclic peptides of protein M of SARS-CoV Urbani [3] | Binding of serum 2 to linear peptides of protein M of SARS-CoV Urbani [3] | Binding of serum 6 to linear peptides of protein M of SARS-CoV Urbani [3] | Binding of serum 37 to linear peptides of protein M of SARS-CoV Urbani [3] | Binding of serum SARS-green to linear peptides of protein M of SARS-CoV Urbani [3]
0.5: Rabbit serum looped peptides [1] | Binding of Control Serum Blood-Bank to Looped peptides of the protein M of SARS-CoV Urbani [2] | Binding of Control serum Blood-bank to linear peptides of the protein M of SARS-CoV Urbani [2] | Binding of serum 1b to linear peptides of protein M of SARS-CoV Urbani [3] | Binding of serum 62 to looped/cyclic peptides of protein M of SARS-CoV Urbani [3]
0.2: Rabbit serum linear peptides [1] | Binding of serum SARS-yellow to linear peptides of protein M of SARS-CoV Urbani [3]
0.7: Binding of serum 1a to linear peptides of protein M of SARS-CoV Urbani [3]
0.3: Binding of serum 62 to linear peptides of protein M of SARS-CoV Urbani [3] | Binding of serum London to linear peptides of protein M of SARS-CoV Urbani [3] | Binding of serum SARS-green to looped/cyclic peptides of protein M of SARS-CoV Urbani [3]

INACRIIMRCWLCWK
0.3: Binding of serum SARS-green to looped/cyclic peptide (PEPSCAN-ELISA) [3]
0.7: Binding of Control Serum Blood-Bank to Looped peptides [2]
recognized in linear form: Recognition of the peptide by sera of SARS-CoV infected individuals, and form (linear, looped/cyclic) in which it is recognized [3]
recognized: Recognition of the peptide by the rabbit serum [1]
0.5: Binding of serum 37 to looped/cyclic peptide (PEPSCAN-ELISA) [3] | Binding of serum SARS-yellow to looped/cyclic peptide (PEPSCAN-ELISA) [3]
0.6: Binding of Control serum LUMC to looped peptides [2] | Binding of serum 1a to looped/cyclic peptide (PEPSCAN-ELISA) [3] | Binding of serum 2 to looped/cyclic peptide (PEPSCAN-ELISA) [3] | Binding of serum 6 to looped/cyclic peptide (PEPSCAN-ELISA) [3] | Binding of serum 62 to looped/cyclic peptide (PEPSCAN-ELISA) [3]
0.9: Binding of Control serum Blood-bank to linear peptides [2]
0.4: Binding of Control serum LUMC to linear peptides [2] | Binding of serum 1b to looped/cyclic peptide (PEPSCAN-ELISA) [3] | Binding of serum London to looped/cyclic peptide (PEPSCAN-ELISA) [3]

IQFMMSRRRLLACLC
0.7: Binding of serum 1a to linear peptides of protein X2 [3] | Binding of serum 62 to linear peptides of protein X2 [3]
0.5: Binding of a rabbit serum to linear peptides [1] | Binding of serum 1b to linear peptides of protein X2 [3] | Binding of serum 2 to looped/cyclic peptides of protein X2 of SARS-CoV Urbani [3] | Binding of serum London to linear peptides of protein X2 [3] | Binding of serum SARS-yellow to looped/cyclic peptides of protein X2 of SARS-CoV Urbani [3]
1.1: Binding of a rabbit serum to looped peptides [1]
0.2: Binding of serum 1b to looped/cyclic peptides of protein X2 of SARS-CoV Urbani [3] | Binding of serum 37 to looped/cyclic peptides of protein X2 of SARS-CoV Urbani [3] | Binding of serum SARS-green to looped/cyclic peptides of protein X2 of SARS-CoV Urbani [3]
0.6: Binding of Control serum LUMC to linear peptides [2] | Binding of serum 6 to linear peptides of protein X2 [3] | Binding of serum 37 to linear peptides of protein X2 [3] | Binding of serum SARS-green to linear peptides of protein X2 [3]
0.3: Binding of Control Serum Blood-Bank to Looped peptides [2] | Binding of serum 6 to looped/cyclic peptides of protein X2 of SARS-CoV Urbani [3] | Binding of serum 62 to looped/cyclic peptides of protein X2 of SARS-CoV Urbani [3]
0.8: Binding of Control serum Blood-bank to linear peptides [2] | Binding of serum SARS-yellow to linear peptides of protein X2 [3]
0.4: Binding of Control serum LUMC to looped peptides [2] | Binding of serum 1a to looped/cyclic peptides of protein X2 of SARS-CoV Urbani [3] | Binding of serum 2 to linear peptides of protein X2 [3] | Binding of serum London to looped/cyclic peptides of protein X2 of SARS-CoV Urbani [3]

IQLSLLKVTAFQHQN
0.4: Binding of Control serum Blood-bank to linear peptides [2] | Binding of serum 1b to linear peptides of protein X2 [3] | Binding of serum 2 to linear peptides of protein X2 [3] | Binding of serum 6 to looped/cyclic peptides of protein X2 of SARS-CoV Urbani [3] | Binding of serum 37 to looped/cyclic peptides of protein X2 of SARS-CoV Urbani [3]
0.7: Binding of Control serum LUMC to linear peptides [2]
0.2: Binding of serum London to looped/cyclic peptides of protein X2 of SARS-CoV Urbani [3] | Binding of serum SARS-green to linear peptides of protein X2 [3] | Binding of serum SARS-green to looped/cyclic peptides of protein X2 of SARS-CoV Urbani [3]
0.6: Binding of a rabbit serum to linear peptides [1] | Binding of Control Serum Blood-Bank to Looped peptides [2] | Binding of Control serum LUMC to looped peptides [2] | Binding of serum 1b to looped/cyclic peptides of protein X2 of SARS-CoV Urbani [3] | Binding of serum 37 to linear peptides of protein X2 [3] | Binding of serum 62 to looped/cyclic peptides of protein X2 of SARS-CoV Urbani [3]
0.5: Binding of a rabbit serum to looped peptides [1] | Binding of serum 1a to linear peptides of protein X2 [3] | Binding of serum 1a to looped/cyclic peptides of protein X2 of SARS-CoV Urbani [3] | Binding of serum 6 to linear peptides of protein X2 [3] | Binding of serum SARS-yellow to looped/cyclic peptides of protein X2 of SARS-CoV Urbani [3]
0.3: Binding of serum 2 to looped/cyclic peptides of protein X2 of SARS-CoV Urbani [3] | Binding of serum 62 to linear peptides of protein X2 [3] | Binding of serum London to linear peptides of protein X2 [3] | Binding of serum SARS-yellow to linear peptides of protein X2 [3]

ISPKFTTSLSLHKLL
0.7: Binding of Control Serum Blood-Bank to Looped peptides [2] | Binding of Control serum Blood-bank to linear peptides [2] | Binding of serum 62 to looped/cyclic peptides of protein X2 of SARS-CoV Urbani [3]
0.6: Binding of serum 62 to linear peptides of protein X2 [3]
0.3: Binding of a rabbit serum to linear peptides [1] | Binding of Control serum LUMC to linear peptides [2] | Binding of serum London to looped/cyclic peptides of protein X2 of SARS-CoV Urbani [3] | Binding of serum SARS-yellow to looped/cyclic peptides of protein X2 of SARS-CoV Urbani [3]
0.2: Binding of serum SARS-green to looped/cyclic peptides of protein X2 of SARS-CoV Urbani [3]
0.4: Binding of a rabbit serum to looped peptides [1] | Binding of serum 1b to linear peptides of protein X2 [3] | Binding of serum 2 to linear peptides of protein X2 [3] | Binding of serum 2 to looped/cyclic peptides of protein X2 of SARS-CoV Urbani [3] | Binding of serum 6 to looped/cyclic peptides of protein X2 of SARS-CoV Urbani [3] | Binding of serum 37 to looped/cyclic peptides of protein X2 of SARS-CoV Urbani [3] | Binding of serum London to linear peptides of protein X2 [3] | Binding of serum SARS-yellow to linear peptides of protein X2 [3]
0.5: Binding of Control serum LUMC to looped peptides [2] | Binding of serum 1a to linear peptides of protein X2 [3] | Binding of serum 1a to looped/cyclic peptides of protein X2 of SARS-CoV Urbani [3] | Binding of serum 1b to looped/cyclic peptides of protein X2 of SARS-CoV Urbani [3] | Binding of serum 6 to linear peptides of protein X2 [3] | Binding of serum 37 to linear peptides of protein X2 [3] | Binding of serum SARS-green to linear peptides of protein X2 [3]

ITMTTVYHITVSQIQ
0.7: Binding of serum 1a to linear peptides of protein X2 [3] | Binding of serum 37 to linear peptides of protein X2 [3]
0.3: Binding of a rabbit serum to linear peptides [1] | Binding of a rabbit serum to looped peptides [1] | Binding of serum 2 to linear peptides of protein X2 [3] | Binding of serum SARS-green to looped/cyclic peptides of protein X2 of SARS-CoV Urbani [3] | Binding of serum SARS-yellow to looped/cyclic peptides of protein X2 of SARS-CoV Urbani [3]
0.2: Binding of serum 1b to linear peptides of protein X2 [3] | Binding of serum 2 to looped/cyclic peptides of protein X2 of SARS-CoV Urbani [3] | Binding of serum 6 to looped/cyclic peptides of protein X2 of SARS-CoV Urbani [3] | Binding of serum London to looped/cyclic peptides of protein X2 of SARS-CoV Urbani [3] | Binding of serum SARS-green to linear peptides of protein X2 [3]
0.0: Binding of serum SARS-yellow to linear peptides of protein X2 [3]
0.4: Binding of Control serum Blood-bank to linear peptides [2] | Binding of Control serum LUMC to linear peptides [2] | Binding of serum 1a to looped/cyclic peptides of protein X2 of SARS-CoV Urbani [3] | Binding of serum 37 to looped/cyclic peptides of protein X2 of SARS-CoV Urbani [3] | Binding of serum 62 to linear peptides of protein X2 [3]
0.5: Binding of Control Serum Blood-Bank to Looped peptides [2] | Binding of Control serum LUMC to looped peptides [2] | Binding of serum 1b to looped/cyclic peptides of protein X2 of SARS-CoV Urbani [3] | Binding of serum 6 to linear peptides of protein X2 [3] | Binding of serum 62 to looped/cyclic peptides of protein X2 of SARS-CoV Urbani [3] | Binding of serum London to linear peptides of protein X2 [3]
